Laboratory results reported in US20210371784A1, “CELL-CONTAINING VESSEL AND METHOD FOR PRODUCING NEURAL CELL-CONTAINING SPHEROID” (RICOH COMPANY, LTD., priority 2020, published 2021).

Tested on: spheroids of human iPSC-derived neurons and human iPSC-derived astrocytes
Test: Calcium transient assay of neural cell-containing spheroids in the presence of a drug
Type: cell-based
Settings: 4-AP final concentration 30 μM, 10-minute period immediately following the addition, spheroids cultured 7 weeks
Text: Spheroids were produced using human iPSC-derived neurons and human iPSC-derived astrocytes, and the drug responsiveness was investigated. First, human iPSC-derived neurons (mixed neurons, manufactured by Elixirgen Scientific, Inc.) and human iPSC-derived astrocytes (Human iPS-derived Astrocytes (mature), manufactured by Xcell Science Inc.) were mixed so as to achieve cell numbers per well that satisfied the cell numbers indicated below in Table 3 for test numbers 3-1 and 3-2. Subsequently, each cell mixture was inoculated onto a spheroid production plate and cultured to produce a spheroid. […]
Subsequently, following culturing for 7 weeks, each of the spheroids was subjected to a calcium transient assay in the presence of a drug. […] In the calcium transient assays, excessive excitation of the neurons was detected as an increase in oscillation frequency or an elevated baseline.
Specifically, first, each spheroid was transferred to a measurement plate, a calcium-sensitive fluorescent dye (EarlyTox Cardiotoxicity Kit, manufactured by Molecular Devices, LLC) was added to the medium, and the mixture was incubated. Subsequently, 4-AP was added to the medium in an amount sufficient to achieve a final concentration of 30 μM, and fluorescence measurements were conducted at 0.6-second intervals for the 10-minute period immediately following the addition. […]

Structure (SMILES): Nc1ccncc1 [4-AP, 4-aminopyridine]
- change in the waveform of the oscillations (drug responsiveness) (test number 3-1, cell number ratio (neurons:astrocytes) 1:1): the expected type of change in the waveform of the oscillations was confirmed
- change in the waveform of the oscillations (drug responsiveness) (test number 3-2, cell number ratio (neurons:astrocytes) 4:1): the expected type of change in the waveform of the oscillations could not be confirmed
